# Patent US12617773B2, “Azetidin-3-ylmethanol derivatives as CCR6 receptor modulators” (Idorsia Pharmaceuticals Ltd, priority 2020, dated 2026)
# Biological target: T1, human CCR6 (Homo sapiens, UniProt P51684)
# T1 construct: expressed in transfected cells; host or cells: HEK-293
# T1 sequence (P51684 1-374): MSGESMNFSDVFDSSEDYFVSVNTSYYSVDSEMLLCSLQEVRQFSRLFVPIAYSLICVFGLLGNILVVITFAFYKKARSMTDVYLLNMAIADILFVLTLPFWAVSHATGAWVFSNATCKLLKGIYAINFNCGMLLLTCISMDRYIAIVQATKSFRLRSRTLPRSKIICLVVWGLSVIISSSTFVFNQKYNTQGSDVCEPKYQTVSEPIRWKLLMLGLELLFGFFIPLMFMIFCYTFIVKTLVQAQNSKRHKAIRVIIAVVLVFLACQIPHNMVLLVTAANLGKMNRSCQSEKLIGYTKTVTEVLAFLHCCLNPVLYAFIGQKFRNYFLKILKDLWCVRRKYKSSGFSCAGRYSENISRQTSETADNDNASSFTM
# Test: FLIPR assay (inhibition of CCL20-induced calcium signal)
# Format: cell-based
# Settings: HEK-293 cells expressing human CCR6; mean values where determined several times; read-out: FLIPR IC50
# Procedure, shortened: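 IC50 values come from baseline-corrected peak calcium fluorescence after agonist. The agonist was CCL20 at 10 nM final, added to engineered human CCR6 HEK-293 cells following a 30-min, room-temperature, dark preincubation with serially diluted compound. Readings were taken in a fluorometric imaging plate reader.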
row,IC50 [nM],Structure (SMILES)
1,63.5,"Cc1nc(-c2cncc([C@@](O)(c3ccc(C(C)C)cc3)C3(C)CN(C)C3)c2)no1 [Example 517, (R)-(1,3-Dimethyl-azetidin-3-yl)-(4-isopropyl-phenyl)-[5-(5-methyl-[1,2,4]oxadiazol-3-yl)-pyridin-3-yl]-methanol]"
2,30,CCC(O)(CCc1cncc([C@@](O)(c2ccc(C(C)C)cc2)C2(C)CN(C)C2)c1)c1ccccn1 (stereo partly drawn) [Example 79]
3,88.9,"CC(=O)N1CC[C@H](c2nc(-c3cncc([C@@](O)(c4ccc(C(C)C)cc4)C4(C)CN(C)C4)c3)no2)[C@H](C)C1 (mixture of isomers) [Example 478, 1-[cis-4-(3-{5-[(R)-(1,3-Dimethyl-azetidin-3-yl)-hydroxy-(4-isopropyl-phenyl)-methyl]-pyridin-3-yl}-[1,2,4]oxadiazol-5-yl)-3-methyl-piperidin-1-yl]-ethanone]"
4,101,Cc1cccc(C(C)(O)C#Cc2cncc([C@@](O)(c3ccc(C(C)C)cc3)C3(C)CN(CC(F)F)C3)c2)n1 (stereo partly drawn) [Example 668]
5,168,"CC(C)c1ccc([C@](O)(c2cncc(-c3nc(C4(O)CCOCC4)no3)c2)C2(C)CN(C)C2)cc1 [Example 519, 4-(5-{5-[(R)-(1,3-Dimethyl-azetidin-3-yl)-hydroxy-(4-isopropyl-phenyl)-methyl]-pyridin-3-yl}-[1,2,4]oxadiazol-3-yl)-tetrahydro-pyran-4-ol]"
6,53.5,CC(C)c1ccc([C@](O)(c2cncc(C#C[C@H](C)O)c2)C2(C)CN(C)C2)cc1 [Example 17]
7,55.9,CC(C)c1ccc([C@](O)(c2cncc(C#CC3(O)CCc4cccnc43)c2)C2(C)CN(C)C2)cc1 (stereo partly drawn) [Example 43]
8,43.7,CC(C)c1ccc([C@](O)(c2cncc(C#CC3(O)CCOCC3)c2)C2(C)CN(C)C2)cc1 [Example 27]
9,1040,"CC(C)c1ccc([C@](O)(c2cnnc(Oc3ccccc3CCO)c2)C2(C)CN(C)C2)cc1 [Example 394, 2-(2-{5-[(R)-(1,3-Dimethyl-azetidin-3-yl)-hydroxy-(4-isopropyl-phenyl)-methyl]-pyridazin-3-yloxy}-phenyl)-ethanol]"
10,77.9,CC(C)c1ccc([C@](O)(c2cncc(N3CCC(O)(C4CC4)C3)c2)C2(C)CN(C)C2)cc1 (stereo partly drawn) [Example 173]
11,47.2,CC1([C@](O)(c2ccc(OC(F)(F)F)cc2)c2cncc(N3CCCC3)c2)CN(CC2CC2)C1 [Example 6]
12,36.7,Cc1noc(C2CCN(c3cncc([C@@](O)(c4ccc(C(C)C)cc4)C4(C)CN(C)C4)c3)C2)n1 (stereo partly drawn) [Example 230]
13,65.8,CCCCc1ccc([C@](O)(c2cncc(-c3noc(C(C)(C)O)n3)c2)C2(C)CN(C)C2)cc1 [Example 570]
14,766,CC(=O)N1CCC(c2nc(-c3cncc([C@@](O)(c4ccc(OC5CCC5)cc4)C4(C)CN(C)C4)c3)no2)CC1 [Example 561]
15,14.7,CC(C)c1ccc([C@](O)(c2cncc(CCC(O)(c3ccccn3)C3CC3)c2)C2(C)CN(C)C2)cc1 (stereo partly drawn) [Example 416]
16,75.9,CC(C)Cc1ccc([C@](O)(c2cncc(-c3noc(C(C)(C)O)n3)c2)C2(C)CN(C)C2)cc1 [Example 573]
17,103,COCC(=O)N1CCC(c2nc(-c3cncc([C@@](O)(c4ccc(C(C)C)cc4)C4(C)CN(C)C4)c3)no2)CC1 [Example 372]
18,66.9,"COCCS(=O)(=O)N1CCC(c2noc(-c3cncc([C@@](O)(c4ccc(C(C)C)cc4)C4(C)CN(C)C4)c3)n2)CC1 [Example 528, (R)-(1,3-Dimethyl-azetidin-3-yl)-(4-isopropyl-phenyl)-(5-{3-[1-(2-methoxy-ethanesulfonyl)-piperidin-4-yl]-[1,2,4]oxadiazol-5-yl}-pyridin-3-yl)-methanol]"
19,99,CC(=O)N1CCCC(Cc2nc(-c3cncc([C@@](O)(c4ccc(C(C)C)cc4)C4(C)CN(C)C4)c3)no2)C1 (stereo partly drawn) [Example 458]
20,26.9,CC(C)c1ccc([C@](O)(c2cncc(N3CC(c4ccccc4)CC3=O)c2)C2(C)CN(C)C2)cc1 (stereo partly drawn) [Example 205]
21,32.4,CC(C)c1ccc([C@](O)(c2cncc(-c3noc(C(C)(C)C4CCOCC4)n3)c2)C2(C)CN(C)C2)cc1 [Example 127]
